Three compounds from patent US8728797B2, “Yeast membrane protein expression system and its application in drug screening” (priority 2001, dated 2014) can be followed below.

Converted amounts (≈) assume the structure as drawn.

The subject of test [1] is S. cerevisiae AD1-8/CDR2. The experiment in a line: MIC microdilution test, strain expressing Cdr2p. In kind it is cell-based. The conditions noted are these: Saccharomyces cerevisiae, AD18/CDR2, 30° C. How it is done:
(§1) The MICs of antifungal agents for S. cerevisiae cells were determined by a microdilution test based on the macrodilution reference method of the National Committee for Clinical Laboratory Standards. Cells (10 μl cell suspension, 2×10^5 cells/ml) were inoculated into 90 μl CSM-URA, buffered with 10 mM 2-(N-morpholino)ethanesulfonic acid (MES) and 18 mM N-2-hydroxyethylpiperazine-N′-2-ethanesulfonic acid (HEPES), pH 7.0 and containing 0.67% (w/v) yeast nitrogen base (YNB) in microtitre plate wells. For the uracil-requiring strain AD1-8u^− the medium was supplemented with 0.02% (w/v) uridine. The wells contained, in […], doubling dilutions of antifungal agents (final concentrations: fluconazole, 40-0.078 μg/ml; itraconazole and ketoconazole, 8-0.016 μg/ml). The microtitre plates were incubated at 30° C. for 48 h with shaking and then the growth of cells in individual wells (OD590) was measured with a microplate reader (EL 340, Bio-Tek, Winooski, Vt.). The MIC80 was the lowest concentration of drug that inhibited growth yield by at least 80% compared to a no-drug control.

The test system of test [2] is S. cerevisiae AD1-8u^−. The experiment in a line: MIC microdilution test, parental strain. In kind it is cell-based. The conditions noted are these: Saccharomyces cerevisiae; AD1-8u^− parental strain; 30° C., 48 h, pH 7.0. As to the method:
as §1
(In general: Dilution methods test growth across graded concentrations, often in twofold steps.)

Test [3] concerns S. cerevisiae AD1002 expressing C. albicans Cdr1p. The experiment in a line: MIC microdilution test, strain expressing Cdr1p. The class given is cell-based. The conditions noted are these: for MIC80: AD1002 expressing Cdr1p, 30° C., 48 h, pH 7.0; for fold increase in MIC: AD1002 relative to parental AD1-8u^−. As to the method:
as §1

Test [4] has as its system AD1002. The experiment in a line: Disk drug susceptibility assay of chemosensitisation to fluconazole. The note with it: 5 μg/ml fluconazole, 12 nanomole peptide on disk. In kind it is cell-based, S. cerevisiae. How it is done:
(A) Checkerboard drug susceptibility assay of AD1002. This assay was conducted as described in Materials and methods in the presence of the indicated concentrations of fluconazole and KN20. (B) Disk drug susceptibility assay of AD1002. This assay was conducted, as described in Materials and methods for Example 4, in the absence or presence of 5 μg/ml fluconazole, with (1) KN0 (12 nanomole), (2) KN20 (12 nanomole) or (0) control amounts of DMSO applied to the disks. (C) Checkerboard drug susceptibility assay of ATCC 10261. This assay was conducted, as described in Material and methods for Example 4, in the presence of the indicated concentrations of fluconazole and KN20. D indicates cell death as measured by a failure to recover any colony forming units when samples from microtitre plate wells were cultured on solid YPD medium.
(§2) Drug susceptibility was measured using disk assays on CSM-URA plates (containing 1.5% w/v agar). Plates were seeded with yeast cells suspended in top agar (5 ml, 10^5 cells/ml). For the uracil-dependent parental strain, agar was supplemented with 0.02% uridine. Five microliters of drug solution or solvent control were spotted onto sterile Whatman paper disks on the top agar. […]

For test [5], the system named is AD124567 (Pdr5p-overexpressing). Described as above. The note with it: 120 μg/ml fluconazole, 47 nanomole peptide on disk. In kind it is cell-based, S. cerevisiae. How it is done: (A) Checkerboard drug susceptibility assay of AD124567 in the presence of the indicated concentrations of fluconazole and KN20. (B) Disk drug susceptibility assay of AD124567. This assay was conducted, as described in Materials and methods for example 4, in the absence or presence of fluconazole (120 μg/ml), and in the presence of (1) KN0 (47 nanomole), (2) KN20 (47 nanomole) or (0) control amounts of DMSO applied to disks
as §2

Test [6] addresses T1, Pdr5p ATPase (Saccharomyces cerevisiae, UniProt P33302).
T1 construct: plasma membranes from the AD124567 yeast strain overexpressing Pdr5p; endogenous in cells; host or cells: S. cerevisiae AD124567 (pdr1-3, PDR5 intact), plasma membrane fraction
The experiment in a line: Oligomycin sensitive ATPase activity of AD124567 plasma membranes. In kind it is biochemical, S. cerevisiae. The conditions noted are these: in vitro. How it is done:
(A) Inhibition profiles of oligomycin-sensitive Pdr5p ATPase activity by the purified peptides D-NH2-asparagine-tryptophan-tryptophan-lysine-valine-arginine-arginine-arginine-CONH2 (KN0) and its singly substituted Mtr-derivative KN20. (B) Inhibition profile with KN20 on the oligomycin-sensitive Cdr1p ATPase activity of plasma membranes from AD1002 minus the oligomycin-sensitive ATPase activity of plasma membranes from the isogenic AD1-8u^− strain.
Yeast were grown in YEPD, pH 5.5 at 30° C. until they reached late-exponential phase of growth (OD600 nm=7), washed twice in ice-cold distilled water, and incubated on ice for 30 min to minimize glucose-stimulated Pma1p activity. Cells were resuspended in homogenising medium (50 mM Tris pH 7.5, 2 mM EDTA and 1 mM phenylmethylsulfonyl fluoride) and disrupted using a Braun Homogeniser. Cell debris and unbroken cells were removed by centrifuging at 2,000×g at 4° C. for 10 min. A crude membrane fraction was isolated from the cell-free supernatant by centrifuging at 30,000×g at 4° C. for 45 min. Plasma membranes were prepared by centrifugation of the supernatant obtained after selective precipitation of mitochondria at pH 5.2 as described previously (Goffeau, A. and Dufour, J. P., 1988). […] Protein was determined using a micro-Bradford (Bio-Rad Laboratories, Hercules, Calif. [Bradford, M. M., 1976]) assay with gamma-globulin as standard. Nucleotide triphosphatase activity was measured by incubating the plasma membrane fractions (10 μg) at 30° C. in a final volume of 120 μl containing 6 mM NTP, 7 mM MgSO4 in 59 mM MES-Tris buffer pH 6.0-8.0. […] Other ATPase inhibitors (20 μM oligomycin, 20 μM aurovertin B or 100 μM vanadate were added to the reaction where indicated. After 30 min the reaction was stopped by adding 130 μl of a solution containing 1% (w/v) SDS, 0.6 M H2SO4, 1.2% (w/v) ammonium molybdate and 1.6% (w/v) ascorbic acid. Inorganic phosphate released from NTPs was measured at 750 nm after 10 min incubation at room temperature.

T1 sequence (P33302 whole entry): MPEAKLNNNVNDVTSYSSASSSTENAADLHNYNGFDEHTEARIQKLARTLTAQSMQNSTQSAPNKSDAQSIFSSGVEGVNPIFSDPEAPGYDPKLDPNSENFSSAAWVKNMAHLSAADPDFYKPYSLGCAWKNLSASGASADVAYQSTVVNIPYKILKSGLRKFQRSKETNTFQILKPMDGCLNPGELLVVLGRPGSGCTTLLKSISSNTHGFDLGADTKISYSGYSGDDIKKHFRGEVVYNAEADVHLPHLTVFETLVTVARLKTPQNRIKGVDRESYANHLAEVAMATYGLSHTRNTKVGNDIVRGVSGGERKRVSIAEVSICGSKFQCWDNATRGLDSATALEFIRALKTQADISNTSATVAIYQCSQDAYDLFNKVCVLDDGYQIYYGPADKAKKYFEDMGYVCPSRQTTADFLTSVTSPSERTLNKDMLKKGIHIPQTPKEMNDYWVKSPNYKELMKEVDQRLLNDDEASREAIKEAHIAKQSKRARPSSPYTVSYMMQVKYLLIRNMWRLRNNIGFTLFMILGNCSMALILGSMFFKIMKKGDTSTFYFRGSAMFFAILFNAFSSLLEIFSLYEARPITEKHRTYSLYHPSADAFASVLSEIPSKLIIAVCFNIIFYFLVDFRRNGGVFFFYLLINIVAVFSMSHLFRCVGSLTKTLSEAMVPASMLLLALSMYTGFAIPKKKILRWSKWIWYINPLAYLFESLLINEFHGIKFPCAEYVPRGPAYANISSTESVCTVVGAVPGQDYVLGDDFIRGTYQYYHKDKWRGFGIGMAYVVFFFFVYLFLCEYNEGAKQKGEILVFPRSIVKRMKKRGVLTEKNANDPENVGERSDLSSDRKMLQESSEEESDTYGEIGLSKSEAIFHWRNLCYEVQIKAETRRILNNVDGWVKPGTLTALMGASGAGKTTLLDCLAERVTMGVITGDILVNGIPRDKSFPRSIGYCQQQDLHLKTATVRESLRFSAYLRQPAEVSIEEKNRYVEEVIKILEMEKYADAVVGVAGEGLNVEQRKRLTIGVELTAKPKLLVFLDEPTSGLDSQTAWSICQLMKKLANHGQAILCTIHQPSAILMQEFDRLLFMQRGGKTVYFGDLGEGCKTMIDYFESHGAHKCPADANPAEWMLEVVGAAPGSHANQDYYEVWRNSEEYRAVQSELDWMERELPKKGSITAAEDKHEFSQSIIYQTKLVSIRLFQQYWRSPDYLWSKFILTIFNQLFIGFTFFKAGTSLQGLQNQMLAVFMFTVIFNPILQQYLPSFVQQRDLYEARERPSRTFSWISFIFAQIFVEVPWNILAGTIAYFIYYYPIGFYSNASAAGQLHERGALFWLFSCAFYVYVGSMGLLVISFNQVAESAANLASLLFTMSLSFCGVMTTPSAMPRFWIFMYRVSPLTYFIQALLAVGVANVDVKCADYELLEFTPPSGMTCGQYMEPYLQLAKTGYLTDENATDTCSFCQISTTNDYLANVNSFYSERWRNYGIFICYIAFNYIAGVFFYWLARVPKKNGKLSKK

Broadly, the MIC80 is the lowest concentration that inhibits either 80% of growth or 80% of the strains tested, depending on the study. As to `CCC(C)n1ncn(-c2ccc(N3CCN(c4ccc(OCC5COC(Cn6cncn6)(c6ccc(Cl)cc6Cl)O5)cc4)CC3)cc2)c1=O` (centres unmarked) [itraconazole], the MIC80 is 1 µg/mL (≈ 1.42 µM) in test [1], under 0.016 µg/mL in test [2] and 4 µg/mL (≈ 5.67 µM) in test [3]. Also, in test [3], the “fold increase in MIC” value is on record as over 250 fold.

For `CC(=O)N1CCN(c2ccc(OCC3COC(Cn4ccnc4)(c4ccc(Cl)cc4Cl)O3)cc2)CC1` (centres unmarked) [ketoconazole], the MIC80 is 2 µg/mL (≈ 3.76 µM) in test [1], under 0.016 µg/mL in test [2] and 0.5 µg/mL (≈ 0.941 µM) in test [3]. Moreover, the “fold increase in MIC” value in test [3] is on record as over 31 fold.

For “D-NH2-asparagine-tryptophan-tryptophan-lysine-valine-arginine-arginine-arginine-CONH2 [KN0]”, the “chemosensitisation to fluconazole in disk assay” value in test [4] and in test [5] was “ineffective at chemosensitisation” in each case. For the same compound, in test [6], the “effect on oligomycin sensitive Pdr5p ATPase activity” value was “ineffective”.
